In US20050287163A1, “Mycoplasma polypeptides” (priority 2002, published 2005):
“Also recorded” adds a separate entry of the source.

Experiments:
[1] = system: M. hyopneumoniae-induced [Ca2+]i increase in porcine ciliated tracheal cells; assay: Effect of pretreatment of tracheal cells on M. hyopneumoniae-induced [Ca2+]i increase; format: cell-based
Experimental: (§1) The following techniques were used to obtain [Ca^2+]i measurements in single cells. The tracheal cells were loaded with 4 μM fura-2 acetoxymethyl ester (fura-2AM) in Krebs-Ringer bicarbonate (KRB) buffer solution containing: 136 mM NaCl, 4.8 mM KCl, 1.5 mM CaCl2, 1.2 mM KH2PO4, 1.2 mM MgSO4, 10 mM HEPES, 5.5 mM glucose, and 0.1% BSA, pH 7.4 and incubated for 30 minutes at 37° C. The loaded cells were centrifuged (700× g, 2 minutes), then resuspended with KRB at a concentration of 500-1000 cells/mL. The tracheal cells loaded with fura-2AM were plated onto poly-lysine-coated coverslips in a custom-made Petri dish. The dish containing fura-2 loaded cells was mounted on the stage of an inverted fluorescence microscope (Carl Zeiss, NY). Only viable ciliated tracheal cells were focused on for the determination of [Ca^2+]i at 24° C. The fura-2 loaded porcine ciliated tracheal cells deteriorated quickly at 37° C. Fluorescence images were obtained (excitation wavelengths of 334 and 380 nm; emission wavelength of 510±20 nm) and used to generate spatially resolved maps of [Ca^2+]i by subtracting the background dividing the images on a pixel-by-pixel basis. The emitted signals were digitalized, recorded, and processed using the Attofluor digital fluorescence imaging system (Atto Instruments, Rockville, Md.). After reading fluorescence for 150 seconds, mycoplasmas were mixed with the cell system. [Ca^2+]i was calculated as previously described (Grynkiewicz et al., J. Biol. Chem., 260:3440-3450 (1985)). Calibration was performed in situ according to the procedure provided by Atto Instruments, using Fura-2 penta K^+ as a standard.
To investigate the pathway of Ca^2+ signaling, pertussis toxin (PTX, 100 ng/mL) was preincubated with tracheal cells for 3 hours. Cells were pretreated with thapsigargin (TG, 1 μM) for 30 minutes at 37° C. prior to the addition of the mycoplasmas to deplete the ER Ca^2+ store (Thastrup et al., Proc. Natl. Acad. Sci. USA, 87:2466-2470 (1990)). […] To confirm that mycoplasmas increased [Ca^2+]i by activating a Gi/o protein, Mas 7 (10 μM), an activator of this protein (Higashijima et al., J. Biol. Chem., 265:14176-14186 (1990)), was used to determine if it can increase [Ca^2+]i in tracheal cells. In addition, it was determined whether PTX can block the increase in [Ca^2+]i due to Mas 7.

[2] = system: porcine ciliated tracheal epithelial cells; assay: [Ca2+]i measurement in single fura-2 loaded ciliated tracheal cells; format: cell-based
Experimental: Tracheal cells were isolated as previously described (Young et al., Vet. Microbiol., 71:269-279 (1999)). Briefly, the tracheas were removed from 3-6 month old specific-pathogen-free pigs anesthetized with sodium pentobarbital using aseptic techniques. The ciliated cells were dissociated using 0.15% pronase and 0.01% DNase in Ca^2+- and Mg^2+-free MEM medium, which was incubated at 4° C. for 24 hours. The epithelial cells were collected by centrifugation at 125× g for 5 minutes. The cell pellets were resuspended in a mixture of DMEM (high glucose) and Ham's F-12 (1:1) media containing 5% FBS, 0.12 U/mL of insulin, and 100 U/mL of penicillin-streptomycin. Cell suspensions were transferred to 90-mm tissue culture dishes and incubated in 5% CO2 for 60-90 minutes to remove fibroblasts. The tracheal epithelial cells were stored in liquid nitrogen until use.
as §1
To compare the [Ca^2+]i of tracheal cells response to pathogenic M. hyopneumoniae strain 91-3, avirulent M. hyopneumoniae, and M. flocculare, the cells were treated with the same concentration of 300 μg/mL. One to five ciliated single tracheal cells in each experiment were selected to investigate the [Ca^2+]i changes. The mycoplasmas were maintained on ice before being applied to tracheal cells.
Data on [Ca^2+]i were analyzed by ANOVA or by Student's t-test. The significance level was set at P<0.05.

[3] = system: Mas 7-induced [Ca2+]i increase in ciliated tracheal cells; assay: Effect of PTX pretreatment on Mas 7-induced [Ca2+]i increase; format: cell-based, porcine; conditions: PTX pretreatment (100 ng/mL, 3 hours); Mas 7 10 μM
Experimental: as §1, with “Only viable ciliated tracheal cells were focused on for the determination of [Ca^2+]i at 24° C. The fura-2 loaded porcine ciliated tracheal cells deteriorated quickly at 37° C.” left out, “Calibration was performed in situ according to the procedure provided by Atto Instruments, using Fura-2 penta K^+ as a standard.” left out

[4] = system: guinea pig tracheal epithelia; conditions: trypsin 0.1 U/mL; cited from earlier work
[5] = system: Mhyo membrane-induced [Ca2+]i increase in ciliated tracheal cells; assay: Protease pretreatment of Mhyo membrane, effect on membrane-induced [Ca2+]i increase; format: cell-based, porcine
Experimental: FIG. 6 contains four graphs plotting [Ca^2+]i response in ciliated porcine tracheal cells inoculated with Mhyo membranes. Each trace indicates the [Ca^2+]i changes in each tracheal cell. The arrows indicate when administration occurred. (A) The membrane preparation (100 μg/mL) increased [Ca^2+]i. (B) Digestion with proteinase K blocked the membrane-induced increase in [Ca^2+]i. The membrane (100 μg/0.1 mL PBS) was incubated with proteinase K (2 μg) at 37° C. for 8 hours before it was applied to tracheal cells in 0.9 mL Krebs-Ringer bicarbonate (KRB) buffer. (C) Digestion with trypsin potentiated the membrane-induced increase in [Ca^2+]i. The membrane (100 μg/0.1 mL PBS) was incubated with trypsin (6 μg) at 37° C. for 30 minutes before it was applied to tracheal cells in 0.9 mL KRB. […] The soluble protein was prepared by subjecting the trypsinized membrane to ultracentrifigation (100,000× g, 60 minutes) to obtain the supernatant.
Mycoplasmas lack cell walls and have only one type of membrane, the plasma membrane (Razin S. (1993) Mycoplasma membranes as models in membrane research (Chapter 2), In: Subcellular Biochemistry. Vol 20: Mycoplasma Cell Membranes, edited by Rottem S, Kahane I. Plenum Press, New York. pp. 1-28). The Mhyo membrane was prepared by osmotic lysis of the organisms and tested to determine if it increased [Ca^2+]i in ciliated tracheal cells. […]

## COc1ccc2c(c1)CC[C@@H]1[C@@H]2CC[C@]2(C)[C@@H](NCCCCCCN3C(=O)C=CC3=O)CC[C@@H]12 [U-73122]
[1]; pretreatment 2 μM, 100 seconds, U-73122
  effect on M. hyopneumoniae-induced [Ca2+]i increase: abolished; also recorded: prevented

## COc1ccc2c(c1)CC[C@@H]1[C@@H]2CC[C@]2(C)[C@@H](NCCCCCCN3C(=O)CCC3=O)CC[C@@H]12 [U-73343]
[1]; U-73343 2 μM
  cells that responded to mycoplasma with pretreatment: 82%
[1]; U-73343 2 μM, basal: 90±12 nM, 10 cells
  peak [Ca2+]i after mycoplasma with pretreatment: 330 ± 25 nM
[1]; pretreatment 2 μM, inactive analogue U-73343
  effect on M. hyopneumoniae-induced [Ca2+]i response: did not prevent

## C/C=C(/C)C(=O)O[C@H]1C(C)=C2[C@H]([C@@H]1OC(=O)CCCCCCC)[C@@](C)(OC(C)=O)C[C@H](OC(=O)CCC)[C@@]1(O)[C@H]2OC(=O)[C@@]1(C)O [thapsigargin]
[1]; pretreatment 1 μM, 30 minutes, mycoplasma 300 μg/mL
  effect on M. hyopneumoniae-induced [Ca2+]i increase: abolished

## Mastoparan 7
[2]; 10 μM, from basal level of 103±4 nM, n=9 cells
  [Ca2+]i after administration: 351 ± 24 nM
[2]; Mas 7 10 μM
  cells that responded: 82%
  time to [Ca2+]i increase: ≤ 100 s
[2]; Mas 7 administration
  effect on [Ca2+]i: increased

## pertussis toxin
[1]; pretreatment 100 ng/mL, 3 hours
  effect on M. hyopneumoniae-induced [Ca2+]i increase: abolished
[3]
  effect on Mas 7-induced [Ca2+]i increase: abolished

## trypsin
[4]
  effect on [Ca2+]i: can increase
[2]; trypsin alone at ≧1 U/mL
  effect of trypsin alone on [Ca2+]i: increase
[5]; pretreatment of the membrane for 30 minutes
  effect of trypsin pretreatment on membrane-induced [Ca2+]i increase: potentiated
[5]; pretreatment of the membrane for 16 hours
  effect of trypsin pretreatment on membrane-induced [Ca2+]i increase: failed to reduce
